Experiments:
[1] = biological target: Tyrosine-protein kinase ABL1 (Homo sapiens) (UniProt P00519); assay: Inhibition of Abl (unknown origin) at 0.1 uM relative to control
[2] = biological target: Tyrosine-protein kinase ABL2 (Homo sapiens) (UniProt P42684); assay: Inhibition of Arg (unknown origin) at 0.1 uM relative to control
[3] = biological target: Aurora kinase A (Homo sapiens) (UniProt O14965); assay: Inhibition of Aurora A (unknown origin) at 0.1 uM relative to control
[4] = biological target: Serine/threonine-protein kinase B-raf (Homo sapiens) (UniProt P15056); assay: Inhibition of B-Raf (unknown origin) at 0.1 uM relative to control
[5] = biological target: Tyrosine-protein kinase BTK (Homo sapiens) (UniProt Q06187); assay: Inhibition of BTK (unknown origin) at 0.1 uM relative to control
[6] = biological target: Tyrosine-protein kinase Blk (Homo sapiens) (UniProt P51451); assay: Inhibition of Blk (unknown origin) at 0.1 uM relative to control
[7] = biological target: Cytoplasmic tyrosine-protein kinase BMX (Homo sapiens) (UniProt P51813); assay: Inhibition of Bmx (unknown origin) at 0.1 uM relative to control
[8] = biological target: Serine/threonine-protein kinase Chk1 (Homo sapiens) (UniProt O14757); assay: Inhibition of CHK1 (unknown origin) at 0.1 uM relative to control
[9] = biological target: Casein kinase II subunit alpha (Homo sapiens) (UniProt P68400); assay: Inhibition of CK2alpha1 (unknown origin) at 0.1 uM relative to control
[10] = biological target: Ephrin type-A receptor 2 (Homo sapiens) (UniProt P29317); assay: Inhibition of EphA2 (unknown origin) at 0.1 uM relative to control
[11] = biological target: Receptor tyrosine-protein kinase erbB-4 (Homo sapiens) (UniProt Q15303); assay: Inhibition of ErbB4 (unknown origin) at 0.1 uM relative to control
[12] = biological target: Receptor-type tyrosine-protein kinase FLT3 (Homo sapiens) (UniProt P36888); assay: Inhibition of Flt3 (unknown origin) at 0.1 uM relative to control
[13] = biological target: Glycogen synthase kinase-3 alpha (Homo sapiens) (UniProt P49840); assay: Inhibition of GSK3alpha (unknown origin) at 0.1 uM relative to control
[14] = biological target: Glycogen synthase kinase-3 beta (Homo sapiens) (UniProt P49841); assay: Inhibition of GSK beta (unknown origin) at 0.1 uM relative to control
[15] = biological target: Insulin-like growth factor 1 receptor (Homo sapiens) (UniProt P08069); assay: Inhibition of IGF1R (unknown origin) at 0.1 uM relative to control
[16] = biological target: Tyrosine-protein kinase JAK2 (Homo sapiens) (UniProt O60674); assay: Inhibition of JAK2 (unknown origin) at 0.1 uM relative to control
[17] = biological target: Mitogen-activated protein kinase 8 (Homo sapiens) (UniProt P45983); assay: Inhibition of JNK1alpha1 (unknown origin) at 0.1 uM relative to control
[18] = biological target: Mast/stem cell growth factor receptor Kit (Homo sapiens) (UniProt P10721); assay: Inhibition of Kit (unknown origin) at 0.1 uM relative to control
[19] = biological target: MAP/microtubule affinity-regulating kinase 3 (Homo sapiens) (UniProt P27448); assay: Inhibition of MARK3 (unknown origin) at 0.1 uM relative to control
[20] = biological target: Dual specificity mitogen-activated protein kinase kinase 1 (Homo sapiens) (UniProt Q02750); assay: Inhibition of MEK1 (unknown origin) at 0.1 uM relative to control
[21] = biological target: Mitogen-activated protein kinase kinase kinase 9 (Homo sapiens) (UniProt P80192); assay: Inhibition of MLK1 (unknown origin) at 0.1 uM relative to control
[22] = biological target: Hepatocyte growth factor receptor (Homo sapiens) (UniProt P08581); assay: Inhibition of Met (unknown origin) at 0.1 uM relative to control
[23] = biological target: Misshapen-like kinase 1 (Homo sapiens) (UniProt Q8N4C8); assay: Inhibition of Mink1 (unknown origin) at 0.1 uM relative to control
[24] = biological target: Serine/threonine-protein kinase Nek1 (Homo sapiens) (UniProt Q96PY6); assay: Inhibition of NEK1 (unknown origin) at 0.1 uM relative to control
[25] = biological target: Serine/threonine-protein kinase Nek9 (Homo sapiens) (UniProt Q8TD19); assay: Inhibition of NEK9 (unknown origin) at 0.1 uM relative to control
[26] = biological target: Serine/threonine-protein kinase PAK 3 (Homo sapiens, UniProt O75914); assay: Inhibition of PAK3 (unknown origin) at 0.1 uM relative to control
[27] = biological target: Serine/threonine-protein kinase PAK 4 (Homo sapiens, UniProt O96013); assay: Inhibition of PAK4 (unknown origin) at 0.1 uM relative to control
[28] = biological target: Serine/threonine-protein kinase PAK 5 (Homo sapiens, UniProt Q9P286); assay: Inhibition of PAK5 (unknown origin) at 0.1 uM relative to control
[29] = organism: Homo sapiens; assay: Inhibition of PDGFRalpha V560D mutant (unknown origin) at 0.1 uM relative to control
[30] = biological target: Serine/threonine-protein kinase D1 (Homo sapiens) (UniProt Q15139); assay: Inhibition of PKD1 (unknown origin) at 0.1 uM relative to control
[31] = biological target: Serine/threonine-protein kinase PLK3 (Homo sapiens) (UniProt Q9H4B4); assay: Inhibition of PLK3 (unknown origin) at 0.1 uM relative to control
[32] = biological target: 5'-AMP-activated protein kinase catalytic subunit alpha-1 (Homo sapiens) (UniProt Q13131); assay: Inhibition of PRKAA1 (unknown origin) at 0.1 uM relative to control
[33] = biological target: Phosphorylase b kinase gamma catalytic chain, skeletal muscle/heart isoform (Homo sapiens) (UniProt Q16816); assay: Inhibition of PhKgamma1 (unknown origin) at 0.1 uM relative to control
[34] = test system: RAF proto-oncogene serine/threonine-protein kinase (Homo sapiens), P04049 [Y340D,Y341D]; assay: Inhibition of RAF1 Y340D/Y341D double mutant (unknown origin) at 0.1 uM relative to control
[35] = biological target: Proto-oncogene tyrosine-protein kinase Src (Homo sapiens) (UniProt P12931); assay: Inhibition of Src (unknown origin) at 0.1 uM relative to control
[36] = biological target: Serine/threonine-protein kinase TAO1 (Homo sapiens) (UniProt Q7L7X3); assay: Inhibition of TAO1 (unknown origin) at 0.1 uM relative to control
[37] = biological target: Serine/threonine-protein kinase TBK1 (Homo sapiens) (UniProt Q9UHD2); assay: Inhibition of TBK1 (unknown origin) at 0.1 uM relative to control
[38] = biological target: Testis-specific serine/threonine-protein kinase 1 (Homo sapiens) (UniProt Q9BXA7); assay: Inhibition of TSSK1 (unknown origin) at 0.1 uM relative to control
[39] = biological target: Mitogen-activated protein kinase 14 (Homo sapiens) (UniProt Q16539); assay: Inhibition of p38alpha (unknown origin) at 0.1 uM relative to control

Tyrosine-protein kinase ABL2 (Homo sapiens), sequence (P42684 whole entry): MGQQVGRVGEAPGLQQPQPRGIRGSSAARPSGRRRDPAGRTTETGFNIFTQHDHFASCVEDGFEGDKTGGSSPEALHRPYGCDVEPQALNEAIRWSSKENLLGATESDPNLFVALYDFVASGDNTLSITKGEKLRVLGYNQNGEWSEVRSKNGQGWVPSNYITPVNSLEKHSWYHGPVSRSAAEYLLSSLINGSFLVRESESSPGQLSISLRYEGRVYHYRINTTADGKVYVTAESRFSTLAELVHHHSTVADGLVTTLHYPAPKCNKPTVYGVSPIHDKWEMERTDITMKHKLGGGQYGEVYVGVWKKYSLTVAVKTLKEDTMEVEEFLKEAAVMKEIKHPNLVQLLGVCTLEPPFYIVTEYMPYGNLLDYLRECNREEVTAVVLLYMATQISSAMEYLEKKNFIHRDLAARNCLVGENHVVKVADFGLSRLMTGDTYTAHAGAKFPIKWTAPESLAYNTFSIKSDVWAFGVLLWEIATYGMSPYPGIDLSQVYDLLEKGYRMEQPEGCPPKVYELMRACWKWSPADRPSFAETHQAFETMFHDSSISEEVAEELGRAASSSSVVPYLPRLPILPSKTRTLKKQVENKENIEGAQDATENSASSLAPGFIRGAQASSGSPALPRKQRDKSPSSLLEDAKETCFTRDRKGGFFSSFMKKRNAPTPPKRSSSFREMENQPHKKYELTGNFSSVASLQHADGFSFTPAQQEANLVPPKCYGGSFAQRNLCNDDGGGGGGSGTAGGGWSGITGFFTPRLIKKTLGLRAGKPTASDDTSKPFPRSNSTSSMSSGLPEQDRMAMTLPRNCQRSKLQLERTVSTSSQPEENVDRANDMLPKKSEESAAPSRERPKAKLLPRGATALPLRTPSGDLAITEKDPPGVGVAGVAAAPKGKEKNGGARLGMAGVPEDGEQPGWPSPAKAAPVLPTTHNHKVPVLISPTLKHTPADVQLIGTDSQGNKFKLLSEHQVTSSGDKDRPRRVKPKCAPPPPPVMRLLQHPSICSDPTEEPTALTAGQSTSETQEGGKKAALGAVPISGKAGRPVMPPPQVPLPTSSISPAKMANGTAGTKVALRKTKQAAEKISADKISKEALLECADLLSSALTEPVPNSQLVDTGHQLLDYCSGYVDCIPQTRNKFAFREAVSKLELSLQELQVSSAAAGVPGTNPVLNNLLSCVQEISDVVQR
Glycogen synthase kinase-3 beta (Homo sapiens), sequence (P49841 whole entry, looked up): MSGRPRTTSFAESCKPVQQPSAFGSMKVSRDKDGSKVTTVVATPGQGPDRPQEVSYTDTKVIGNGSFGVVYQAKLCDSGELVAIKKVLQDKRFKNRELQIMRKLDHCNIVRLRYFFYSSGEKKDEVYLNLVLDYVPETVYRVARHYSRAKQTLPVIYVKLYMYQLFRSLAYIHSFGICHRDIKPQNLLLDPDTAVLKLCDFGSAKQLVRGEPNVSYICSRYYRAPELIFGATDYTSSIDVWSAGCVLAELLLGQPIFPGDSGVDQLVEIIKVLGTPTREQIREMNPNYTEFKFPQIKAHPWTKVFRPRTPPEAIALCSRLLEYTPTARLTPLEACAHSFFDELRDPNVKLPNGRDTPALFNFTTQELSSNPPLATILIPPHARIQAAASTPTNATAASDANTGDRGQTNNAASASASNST
Mast/stem cell growth factor receptor Kit (Homo sapiens), sequence (P10721 whole entry): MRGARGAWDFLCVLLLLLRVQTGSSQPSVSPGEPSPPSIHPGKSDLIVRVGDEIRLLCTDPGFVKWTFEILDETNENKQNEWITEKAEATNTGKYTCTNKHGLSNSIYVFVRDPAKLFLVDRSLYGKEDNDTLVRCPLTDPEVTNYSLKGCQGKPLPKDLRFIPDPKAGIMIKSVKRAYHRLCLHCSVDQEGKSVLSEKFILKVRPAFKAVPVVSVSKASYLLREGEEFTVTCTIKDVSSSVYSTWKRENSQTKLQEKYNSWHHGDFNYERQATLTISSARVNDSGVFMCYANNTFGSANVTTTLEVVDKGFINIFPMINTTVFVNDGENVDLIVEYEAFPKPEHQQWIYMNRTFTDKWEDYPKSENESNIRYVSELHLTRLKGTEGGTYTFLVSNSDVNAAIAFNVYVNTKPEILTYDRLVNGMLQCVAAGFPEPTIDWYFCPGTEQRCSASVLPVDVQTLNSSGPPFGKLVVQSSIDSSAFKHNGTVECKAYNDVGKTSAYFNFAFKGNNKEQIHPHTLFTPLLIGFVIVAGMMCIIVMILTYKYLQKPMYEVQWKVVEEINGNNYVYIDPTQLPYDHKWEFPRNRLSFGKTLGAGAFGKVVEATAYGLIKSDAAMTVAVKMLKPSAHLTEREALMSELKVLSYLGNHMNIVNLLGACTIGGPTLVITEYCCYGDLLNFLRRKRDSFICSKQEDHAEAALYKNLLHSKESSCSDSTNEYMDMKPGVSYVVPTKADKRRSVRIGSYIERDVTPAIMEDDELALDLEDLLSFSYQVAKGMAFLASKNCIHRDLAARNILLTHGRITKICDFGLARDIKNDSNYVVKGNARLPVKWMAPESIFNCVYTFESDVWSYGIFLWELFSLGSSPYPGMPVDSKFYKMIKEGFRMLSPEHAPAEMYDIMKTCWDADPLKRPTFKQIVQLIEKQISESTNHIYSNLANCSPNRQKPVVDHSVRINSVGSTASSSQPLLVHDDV
Aurora kinase A (Homo sapiens), sequence (O14965 whole entry): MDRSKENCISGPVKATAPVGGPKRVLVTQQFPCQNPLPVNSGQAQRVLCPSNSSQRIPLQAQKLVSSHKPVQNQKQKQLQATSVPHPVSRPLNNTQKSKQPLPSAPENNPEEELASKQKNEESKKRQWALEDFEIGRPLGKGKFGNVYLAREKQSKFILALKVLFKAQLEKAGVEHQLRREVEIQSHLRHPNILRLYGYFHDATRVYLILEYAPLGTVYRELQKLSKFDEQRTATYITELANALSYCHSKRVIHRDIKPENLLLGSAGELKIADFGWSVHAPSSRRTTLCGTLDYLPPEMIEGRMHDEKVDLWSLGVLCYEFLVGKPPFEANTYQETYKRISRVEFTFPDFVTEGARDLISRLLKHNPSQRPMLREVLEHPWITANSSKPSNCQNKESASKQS
Mitogen-activated protein kinase kinase kinase 9 (Homo sapiens), sequence (P80192 whole entry, looked up): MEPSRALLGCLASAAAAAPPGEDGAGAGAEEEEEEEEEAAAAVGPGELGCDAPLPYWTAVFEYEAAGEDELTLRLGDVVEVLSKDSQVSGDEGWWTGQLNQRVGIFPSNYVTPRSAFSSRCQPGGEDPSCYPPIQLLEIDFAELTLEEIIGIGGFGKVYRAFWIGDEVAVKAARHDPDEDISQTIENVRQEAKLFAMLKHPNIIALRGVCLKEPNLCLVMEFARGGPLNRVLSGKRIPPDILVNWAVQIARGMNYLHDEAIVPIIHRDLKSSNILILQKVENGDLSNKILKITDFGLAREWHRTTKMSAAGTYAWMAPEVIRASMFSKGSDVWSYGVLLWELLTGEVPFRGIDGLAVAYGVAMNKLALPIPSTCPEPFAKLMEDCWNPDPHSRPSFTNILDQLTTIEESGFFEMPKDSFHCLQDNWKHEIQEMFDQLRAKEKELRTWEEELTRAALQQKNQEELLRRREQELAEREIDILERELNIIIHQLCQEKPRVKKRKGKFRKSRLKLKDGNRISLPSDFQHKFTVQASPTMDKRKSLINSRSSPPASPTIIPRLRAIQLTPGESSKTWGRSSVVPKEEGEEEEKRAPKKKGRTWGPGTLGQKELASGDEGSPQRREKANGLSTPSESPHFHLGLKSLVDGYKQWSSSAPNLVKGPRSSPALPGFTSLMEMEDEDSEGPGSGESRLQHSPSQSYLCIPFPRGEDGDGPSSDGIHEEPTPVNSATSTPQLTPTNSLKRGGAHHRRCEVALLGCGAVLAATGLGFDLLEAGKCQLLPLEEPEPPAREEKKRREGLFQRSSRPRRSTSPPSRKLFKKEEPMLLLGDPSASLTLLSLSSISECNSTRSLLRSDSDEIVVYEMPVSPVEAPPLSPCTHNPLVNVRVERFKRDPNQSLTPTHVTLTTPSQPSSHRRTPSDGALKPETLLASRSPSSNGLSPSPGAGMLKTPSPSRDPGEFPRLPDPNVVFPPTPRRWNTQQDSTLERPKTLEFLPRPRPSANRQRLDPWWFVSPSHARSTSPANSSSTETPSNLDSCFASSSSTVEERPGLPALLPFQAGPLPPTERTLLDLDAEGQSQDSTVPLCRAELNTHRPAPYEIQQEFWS
Cytoplasmic tyrosine-protein kinase BMX (Homo sapiens), sequence (P51813 whole entry): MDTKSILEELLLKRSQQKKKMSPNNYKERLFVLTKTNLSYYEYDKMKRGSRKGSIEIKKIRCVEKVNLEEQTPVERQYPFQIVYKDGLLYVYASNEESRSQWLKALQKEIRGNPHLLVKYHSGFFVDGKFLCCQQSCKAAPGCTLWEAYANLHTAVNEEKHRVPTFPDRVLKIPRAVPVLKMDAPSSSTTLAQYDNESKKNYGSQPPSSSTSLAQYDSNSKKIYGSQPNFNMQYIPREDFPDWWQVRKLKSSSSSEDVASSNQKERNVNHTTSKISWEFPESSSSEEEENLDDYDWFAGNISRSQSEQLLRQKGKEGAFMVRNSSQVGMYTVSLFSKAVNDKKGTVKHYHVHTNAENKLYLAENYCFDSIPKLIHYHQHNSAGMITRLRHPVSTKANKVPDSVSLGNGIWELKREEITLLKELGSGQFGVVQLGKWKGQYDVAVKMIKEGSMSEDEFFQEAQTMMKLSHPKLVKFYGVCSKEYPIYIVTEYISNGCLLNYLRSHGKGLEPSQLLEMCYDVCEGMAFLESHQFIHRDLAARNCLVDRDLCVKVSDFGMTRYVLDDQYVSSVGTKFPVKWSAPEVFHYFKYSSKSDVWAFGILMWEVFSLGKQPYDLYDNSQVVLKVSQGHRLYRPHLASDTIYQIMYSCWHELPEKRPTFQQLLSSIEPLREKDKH

inhibition [1] [%] | inhibition [2] [%] | inhibition [3] [%] | inhibition [4] [%] | inhibition [5] [%] | inhibition [6] [%] | inhibition [7] [%] | inhibition [8] [%] | inhibition [9] [%] | inhibition [10] [%] | inhibition [11] [%] | inhibition [12] [%] | inhibition [13] [%] | inhibition [14] [%] | inhibition [15] [%] | inhibition [16] [%] | inhibition [17] [%] | inhibition [18] [%] | inhibition [19] [%] | inhibition [20] [%] | Structure (SMILES) | other results
99.5 | 95.3 | 25.9 | 49 | 86.3 | 86 | 91.5 | 19.1 | -3.5 | 43.5 | 78.9 | 83.4 | 40.6 | 11 | 6.5 | 50.3 | 51 | 37 | 37 | 23.8 | CN1CCc2cc(-c3cnc4[nH]cc(C(=O)c5ccccc5Cl)c4c3)ccc2C1 | inhibition [21]: 11.4%; inhibition [22]: 13.3%; inhibition [23]: 97%; inhibition [24]: 1.5%; inhibition [25]: -0.9%; inhibition [26]: 92.6%; inhibition [27]: 29.2%; inhibition [28]: 28.5%; inhibition [29]: 66.9%; inhibition [30]: 49.5%; inhibition [31]: -5.8%; inhibition [32]: 16%; inhibition [33]: 8.3%; inhibition [34]: -4.8%; inhibition [35]: 92.9%; inhibition [36]: 91.5%; inhibition [37]: 4.3%; inhibition [38]: 28%; inhibition [39]: 34.8%
-0.2 | 10.2 | 10.3 | 8.2 | 0.8 | 7.2 | 11.6 | -3.5 | 5.2 | 15 | -1 | 8.7 | 9.7 | 4.6 | 2.9 | 3.4 | 4.1 | -5.5 | 5.5 | 2.5 | COCCNc1nc2ccc(C#CC3(O)CCCCC3)cc2n1-c1ccnc(N)n1 | inhibition [21]: 15.4%; inhibition [22]: 2.6%; inhibition [23]: 4.4%; inhibition [24]: 0.3%; inhibition [25]: 1.6%; inhibition [26]: 3.3%; inhibition [27]: 89.5%; inhibition [28]: 75.1%; inhibition [29]: -3.5%; inhibition [30]: 16.4%; inhibition [31]: 9.2%; inhibition [32]: 10.6%; inhibition [33]: 12.5%; inhibition [34]: 7.6%; inhibition [35]: 1.9%; inhibition [36]: -0.2%; inhibition [37]: 11.6%; inhibition [38]: 6.2%; inhibition [39]: 4.4%
